{
  "source": "patent US20120289611A1",
  "about": "“PECTIN COMPOUNDS, METHODS OF USING PECTIN COMPOUNDS, AND METHODS OF CONTROLLING WATER SOLUBILITY” (priority 2009, published 2012)",
  "origin": "cited, not measured here",
  "note": "Entries after “also recorded” stand apart in the source; their conditions may differ. Counter-ions that a name gives are not always drawn.",
  "data": [
    {"conditions": "in water (where stated)", "units": {"solubility": "µg/mL"}, "values": [
      {"smiles": "COc1ccccc1OCCNCC(O)COc1cccc2[nH]c3ccccc3c12", "note": "(centres unmarked) [Carvedilol]", "solubility": 0.583},
      {"smiles": "CN(C)CCCC1(c2ccc(F)cc2)OCc2cc(C#N)ccc21", "note": "(centres unmarked) [Citalopram Hydrobromide]", "solubility": 31},
      {"smiles": "COC(=O)[C@H](c1ccccc1Cl)N1CCc2sccc2C1", "note": "[Clopidogrel bisulphate]", "solubility": 50.78},
      {"smiles": "CCC(=O)O[C@]1(C(=O)SCF)[C@H](C)C[C@H]2[C@@H]3C[C@H](F)C4=CC(=O)C=C[C@]4(C)[C@@]3(F)[C@@H](O)C[C@@]21C", "note": "[Fluticasone propionate]", "solubility": 0.51},
      {"smiles": "Cc1c(OCC(F)(F)F)ccnc1C[S+]([O-])c1nc2ccccc2[nH]1", "note": "(centres unmarked) [Lansoprazole]", "solubility": 0.97},
      {"smiles": "CCCCc1nc(Cl)c(CO)n1Cc1ccc(-c2ccccc2-c2nn[nH]n2)cc1", "note": "[Losartan]", "solubility": 0.82},
      {"smiles": "CCCCc1nc(Cl)c(CO)n1Cc1ccc(-c2ccccc2-c2nnn[n-]2)cc1.[K+]", "note": "[potassium losartan]", "solubility": 0.82}
    ]},
    {"conditions": "organic solvent named in the value; hydrochloride", "values": [
      {"smiles": "CCc1ccc(CCOc2ccc(CC3SC(=O)NC3=O)cc2)nc1", "note": "(centres unmarked) [Pioglitazone hydrochloride]", "solubility in words, other solvents": "slightly soluble in anhydrous ethanol; also recorded: very slightly soluble in acetone and acetonitrile; also recorded: insoluble in ether"}
    ]},
    {"conditions": "water, or solvent not stated", "values": [
      {"smiles": "COc1ccc2nc([S@@+]([O-])Cc3ncc(C)c(OC)c3C)[nH]c2c1", "note": "[Esomeprazole]", "solubility in words": "very slightly soluble in water"},
      {"smiles": "C[C@@H]1C[C@H]2[C@@H]3CCC4=CC(=O)C=C[C@]4(C)[C@@]3(Cl)[C@@H](O)C[C@]2(C)[C@@]1(OC(=O)c1ccco1)C(=O)CCl", "note": "[Mometasone furoate]", "solubility in words": "practically insoluble"},
      {"smiles": "Cc1cc2c(s1)Nc1ccccc1N=C2N1CCN(C)CC1", "note": "[Olanzapine]", "solubility in words": "practically insoluble in water"},
      {"smiles": "CCc1ccc(CCOc2ccc(CC3SC(=O)NC3=O)cc2)nc1", "note": "(centres unmarked) [Pioglitazone hydrochloride]", "solubility in words": "practically insoluble in water"},
      {"smiles": "CCCc1nc2c(C)cc(-c3nc4ccccc4n3C)cc2n1Cc1ccc(-c2ccccc2C(=O)O)cc1", "note": "[Telmisartan]", "solubility in words": "practically insoluble"},
      {"smiles": "O=P(O)(O)C(O)(Cn1ccnc1)P(=O)(O)O", "note": "[Zoledronic acid monohydrate]", "solubility in words": "sparingly soluble"}
    ]}
  ]
}
